ChEMBL document CHEMBL4814065, “Taurultams incorporating arylsulfonamide: First in vitro inhibition studies of α-, β- and γ-class Carbonic Anhydrases from Vibrio cholerae and Burkholderia pseudomallei” (Eur J Med Chem, 2021)

Key:
[1] = Inhibition of Burkholderia pseudomallei gamma carbonic anhydrase preincubated with enzyme for 15 mins by phenol red-based stopped-flow CO2 hydration assay
[2] = Inhibition of Burkholderia pseudomallei beta carbonic anhydrase preincubated with enzyme for 15 mins by phenol red-based stopped-flow CO2 hydration assay
[3] = Inhibition of Vibrio cholerae beta carbonic anhydrase preincubated with enzyme for 15 mins by phenol red-based stopped-flow CO2 hydration assay
[4] = Inhibition of Vibrio cholerae gamma carbonic anhydrase preincubated with enzyme for 15 mins by phenol red-based stopped-flow CO2 hydration assay
[5] = Inhibition of Vibrio cholerae alpha carbonic anhydrase preincubated with enzyme for 15 mins by phenol red-based stopped-flow CO2 hydration assay
[6] = Selectivity index, ratio of Ki for Vibrio cholerae beta carbonic anhydrase to Ki for human carbonic anhydrase 2
[7] = Selectivity index, ratio of Ki for Vibrio cholerae gamma carbonic anhydrase to Ki for human carbonic anhydrase 2
[8] = Selectivity index, ratio of Ki for Burkholderia pseudomallei gamma carbonic anhydrase to Ki for human carbonic anhydrase 2
[9] = Selectivity index, ratio of Ki for Vibrio cholerae alpha carbonic anhydrase to Ki for human carbonic anhydrase 2
[10] = Selectivity index, ratio of Ki for Burkholderia pseudomallei beta carbonic anhydrase to Ki for human carbonic anhydrase 2

With `NS(=O)(=O)c1ccc(N2CN(Cc3cccc(Cl)c3)CCS2(=O)=O)cc1` the Ki [1] was 68.7 nM, the Ki [2] was 416 nM and the Ki [3] was 3970 nM. The Ki [4] was 6770 nM and the Ki [5] was 37.7 nM.

For `NS(=O)(=O)c1ccc(CCN2CN(Cc3c(F)cccc3F)CCS2(=O)=O)cc1`, the Ratio Ki [6] was 16.9, the Ki [1] was 19.5 nM and the Ki [2] was 393 nM. For the same molecule, the Ki [3] was 952 nM, the Ratio Ki [7] was 156 and the Ratio Ki [8] was 0.3. The Ratio Ki [9] was 0.14, the Ratio Ki [10] was 7 and the Ki [4] was 8820 nM. The Ki [5] was 8 nM.

In the case of `NS(=O)(=O)c1ccc(N2CN(Cc3c(F)c(F)c(F)c(F)c3F)CCS2(=O)=O)cc1`, the Ki [1] is reported as 824 nM, the Ki [2] is reported as 81.8 nM and the Ki [3] is reported as 4440 nM. The Ki [4] was 8110 nM and the Ki [5] was 8.5 nM.

For `NS(=O)(=O)c1ccc(N2CCCCS2(=O)=O)cc1`, the Ki [1] was greater than 50000 nM.
